Columns and labels:
Assay type in all cases: functional, cell-free
[1] = Antioxidant activity against Cu2+-induced lipid peroxidation in human plasma LDL assessed as vitamin E consumption at 20 umol/L preincubated for 1 hr before Cu2+ challenge measured after 120 mins
[2] = Antioxidant activity against Cu2+-induced lipid peroxidation in human plasma LDL assessed as maximal compound concentration at 5 umol/L preincubated for 1 hr before Cu2+ challenge measured after 45 mins relative to compound present at 0 min
[3] = Antioxidant activity against Cu2+-induced lipid peroxidation in human plasma LDL assessed as maximal compound concentration at 20 umol/L preincubated for 1 hr before Cu2+ challenge measured after 15 mins relative to compound present at 0 min
[4] = Antioxidant activity against Cu2+-induced lipid peroxidation in human plasma LDL assessed as conjugated diene formation at 5 umol/L preincubated for 1 hr before Cu2+ challenge measured after 180 mins
[5] = Antioxidant activity against Cu2+-induced lipid peroxidation in human plasma LDL assessed as maximal compound concentration at 5 umol/L preincubated for 1 hr before Cu2+ challenge measured after 15 mins relative to compound present at 0 min
[6] = Antioxidant activity against Cu2+-induced lipid peroxidation in human plasma LDL assessed as conjugated diene formation at 10 umol/L preincubated for 1 hr before Cu2+ challenge measured after 210 mins
[7] = Antioxidant activity against Cu2+-induced lipid peroxidation in human plasma LDL assessed as conjugated diene formation at 20 umol/L preincubated for 1 hr before Cu2+ challenge measured after 60 mins
[8] = Antioxidant activity against Cu2+-induced lipid peroxidation in human plasma LDL assessed as conjugated diene formation at 5 umol/L preincubated for 1 hr before Cu2+ challenge measured after 150 mins
[9] = Antioxidant activity against Cu2+-induced lipid peroxidation in human plasma LDL assessed as vitamin E consumption at 10 umol/L preincubated for 1 hr before Cu2+ challenge measured after 45 mins
[10] = Antioxidant activity against Cu2+-induced lipid peroxidation in human plasma LDL assessed as maximal compound concentration at 10 umol/L preincubated for 1 hr before Cu2+ challenge measured after 120 mins relative to compound present at 0 min
[11] = Antioxidant activity against Cu2+-induced lipid peroxidation in human plasma LDL assessed as maximal compound concentration at 5 umol/L preincubated for 1 hr before Cu2+ challenge measured after 30 mins relative to compound present at 0 min
[12] = Antioxidant activity against Cu2+-induced lipid peroxidation in human plasma LDL assessed as maximal compound concentration at 5 umol/L preincubated for 1 hr before Cu2+ challenge measured after 90 mins relative to compound present at 0 min
[13] = Antioxidant activity against Cu2+-induced lipid peroxidation in human plasma LDL assessed as lysophosphatidylcholine formation at 5 umol/L preincubated for 1 hr before Cu2+ challenge measured after 360 mins
[14] = Antioxidant activity against Cu2+-induced lipid peroxidation in human plasma LDL assessed as vitamin E consumption at 10 umol/L preincubated for 1 hr before Cu2+ challenge measured after 90 mins
[15] = Antioxidant activity against Cu2+-induced lipid peroxidation in human plasma LDL assessed as lysophosphatidylcholine formation at 20 umol/L preincubated for 1 hr before Cu2+ challenge measured after 120 mins
[16] = Antioxidant activity against Cu2+-induced lipid peroxidation in human plasma LDL assessed as conjugated diene formation at 10 umol/L preincubated for 1 hr before Cu2+ challenge measured after 90 mins
[17] = Antioxidant activity against Cu2+-induced lipid peroxidation in human plasma LDL assessed as maximal compound concentration at 20 umol/L preincubated for 1 hr before Cu2+ challenge measured after 60 mins relative to compound present at 0 min
[18] = Antioxidant activity against Cu2+-induced lipid peroxidation in human plasma LDL assessed as vitamin E consumption at 5 umol/L preincubated for 1 hr before Cu2+ challenge measured after 15 mins
[19] = Antioxidant activity against Cu2+-induced lipid peroxidation in human plasma LDL assessed as lysophosphatidylcholine formation at 10 umol/L preincubated for 1 hr before Cu2+ challenge measured after 360 mins
[20] = Antioxidant activity against Cu2+-induced lipid peroxidation in human plasma LDL assessed as conjugated diene formation at 10 umol/L preincubated for 1 hr before Cu2+ challenge measured after 360 mins
[21] = Antioxidant activity against Cu2+-induced lipid peroxidation in human plasma LDL assessed as lysophosphatidylcholine formation at 5 umol/L preincubated for 1 hr before Cu2+ challenge measured after 60 mins
[22] = Antioxidant activity against Cu2+-induced lipid peroxidation in human plasma LDL assessed as maximal compound concentration at 20 umol/L preincubated for 1 hr before Cu2+ challenge measured after 45 mins relative to compound present at 0 min
[23] = Antioxidant activity against Cu2+-induced lipid peroxidation in human plasma LDL assessed as lysophosphatidylcholine formation at 20 umol/L preincubated for 1 hr before Cu2+ challenge measured after 90 mins
[24] = Antioxidant activity against Cu2+-induced lipid peroxidation in human plasma LDL assessed as vitamin E consumption at 5 umol/L preincubated for 1 hr before Cu2+ challenge measured after 60 mins
[25] = Antioxidant activity against Cu2+-induced lipid peroxidation in human plasma LDL assessed as lysophosphatidylcholine formation at 20 umol/L preincubated for 1 hr before Cu2+ challenge measured after 60 mins
[26] = Antioxidant activity against Cu2+-induced lipid peroxidation in human plasma LDL assessed as maximal compound concentration at 5 umol/L preincubated for 1 hr before Cu2+ challenge measured after 270 mins relative to compound present at 0 min
[27] = Antioxidant activity against Cu2+-induced lipid peroxidation in human plasma LDL assessed as vitamin E consumption at 5 umol/L preincubated for 1 hr before Cu2+ challenge measured after 150 mins
[28] = Antioxidant activity against Cu2+-induced lipid peroxidation in human plasma LDL assessed as conjugated diene formation at 10 umol/L preincubated for 1 hr before Cu2+ challenge measured after 150 mins
[29] = Antioxidant activity against Cu2+-induced lipid peroxidation in human plasma LDL assessed as conjugated diene formation at 10 umol/L preincubated for 1 hr before Cu2+ challenge measured after 270 mins
[30] = Antioxidant activity against Cu2+-induced lipid peroxidation in human plasma LDL assessed as vitamin E consumption at 20 umol/L preincubated for 1 hr before Cu2+ challenge measured after 180 mins
[31] = Antioxidant activity against Cu2+-induced lipid peroxidation in human plasma LDL assessed as conjugated diene formation at 20 umol/L preincubated for 1 hr before Cu2+ challenge measured after 270 mins
[32] = Antioxidant activity against Cu2+-induced lipid peroxidation in human plasma LDL assessed as vitamin E consumption at 10 umol/L preincubated for 1 hr before Cu2+ challenge measured after 150 mins
[33] = Antioxidant activity against Cu2+-induced lipid peroxidation in human plasma LDL assessed as conjugated diene formation at 20 umol/L preincubated for 1 hr before Cu2+ challenge measured after 210 mins
[34] = Antioxidant activity against Cu2+-induced lipid peroxidation in human plasma LDL assessed as maximal compound concentration at 20 umol/L preincubated for 1 hr before Cu2+ challenge measured after 270 mins relative to compound present at 0 min

For `CC(C)(Sc1cc(C(C)(C)C)c(O)c(C(C)(C)C)c1)Sc1cc(C(C)(C)C)c(O)c(C(C)(C)C)c1`, which Activity [1] is on record?
Its Activity is 0%.

What about the Activity [2] of the same molecule?
The Activity was 114%.

What about the Activity [3] of the same molecule?
The Activity was 97%.

What about the Activity [4] of the same molecule?
Its Activity is 79.5%.

What about the Activity [5] of the same molecule?
The Activity was 96%.

What about the Activity [6] of the same molecule?
The Activity was 76.3%.

What about the Activity [7] of the same molecule?
Its Activity is 1.3%.

What about the Activity [8] of the same molecule?
Its Activity is 78.3%.

What about the Activity [9] of the same molecule?
The Activity was 11%.

And the Activity [10]?
The Activity was 37.2%.

And the Activity [11]?
Its Activity is 94.8%.

What about the Activity [12] of the same molecule?
Its Activity is 55.3%.

What about the Activity [13] of the same molecule?
Its Activity is 29.1%.

What about the Activity [14] of the same molecule?
Its Activity is 0%.

What about the Activity [15] of the same molecule?
The Activity was 1%.

And the Activity [16]?
The Activity was 4%.

What about the Activity [17] of the same molecule?
The Activity was 51.7%.

And the Activity [18]?
The Activity was 45%.

And the Activity [19]?
The Activity was 19.2%.

And the Activity [20]?
The Activity was 100%.

And the Activity [21]?
Its Activity is 2.5%.

What about the Activity [22] of the same molecule?
The Activity was 87.7%.

What about the Activity [23] of the same molecule?
Its Activity is 1.1%.

And the Activity [24]?
The Activity was 0%.

And the Activity [25]?
The Activity was 1.2%.

And the Activity [26]?
The Activity was 22.5%.

And the Activity [27]?
The Activity was 0%.

And the Activity [28]?
Its Activity is 77.2%.

What about the Activity [29] of the same molecule?
The Activity was 79.9%.

What about the Activity [30] of the same molecule?
Its Activity is 0%.

What about the Activity [31] of the same molecule?
Its Activity is 2.6%.

What about the Activity [32] of the same molecule?
Its Activity is 0%.

What about the Activity [33] of the same molecule?
The Activity was 2.6%.

And the Activity [34]?
The Activity was 34.6%.
